Blank lines part the entries; values can stand above or below the molecule they belong to.
Assays:
[1] = instrument: TW, calibrated with phosphatidylcholines (ESI+) and phosphatidylethanolamines (ESI-)
[2] = instrument: TW, calibrated with phosphatidylcholines (ESI+) and phosphatidylethanolamines (ESI-), doubly charged cardiolipins calibrated with poly-DL-…

collision cross section (N2) ([1]; [M+H]+): 279.7 Å²
collision cross section (N2) ([1]; [M-H]-): 267.3 Å²
SMILES: CCCCCC/C=C\CCCCCCCC(=O)O[C@H](CO/C=C\CCCCCCCCCCCCCCCCCC)COP(=O)(O)OCCN [PE(p36:1)]

collision cross section (N2) ([1]; [M+H]+): 274.2 Å²
SMILES: CC/C=C\C/C=C\C/C=C\C/C=C\C/C=C\CCCC(=O)O[C@H](CO/C=C\CCCCCCCCCCCCCC)COP(=O)(O)OCCN [PE(p36:5)]

collision cross section (N2) ([1]; [M+H]+): 298.2 Å²
collision cross section (N2) ([1]; [M+Na]+): 297.3 Å²
SMILES: CCCCCCCCCCCCC=CC[C@@H](O)[C@H](CO[C@@H]1O[C@H](CO)[C@@H](O)C(O)C1O)NC(=O)CC=CCCCCCCCCCCCCCCCCCCCC (some centres not stated) [GlcCer(d18:1/24:1)]

collision cross section (N2) ([1]; [M+H]+): 281.4 Å²
collision cross section (N2) ([1]; [M-H]-): 270.9 Å²
SMILES: CCCCC/C=C\C/C=C\C/C=C\CCCCCCC(=O)O[C@H](CO/C=C\CCCCCCCCCCCCCCCC)COP(=O)(O)OCCN [PE(p38:3)]

collision cross section (N2) ([2]; [M+2K]2+): 425.7 Å²
collision cross section (N2) ([2]; [M-2H]2-): 401.91 Å²
SMILES: CCCCCC/C=C\CCCCCCCC(=O)OCC(COP(=O)(O)OCC(O)COP(=O)(O)OCC(COC(=O)CCCCCCCCCCCCCCC)OC(=O)CCCCCCC/C=C\CCCCCCCC)OC(=O)CCCCCCC/C=C\CCCCCC (configuration not stated) [CL(66:3)]

collision cross section (N2) ([1]; [M+H]+): 239 Å²
SMILES: CCCCC/C=C\C/C=C\C/C=C\CCCCCCC(=O)OC[C@@H](O)COP(=O)([O-])OCC[N+](C)(C)C [LPC(20:3)]

collision cross section (N2) ([2]; [M+H]+): 272.49 Å²
collision cross section (N2) ([2]; [M-H]-): 257.29 Å²
SMILES: CCCCCCCCCCCCCCCC(=O)OCC(COP(=O)(O)OCCN)OC(=O)CCCCCCCCCCCCCCC (configuration not stated) [PE(32:0)]

collision cross section (N2) ([2]; [M-H]-): 255.63 Å²
SMILES: CCCCCCCC/C=C\CCCCCCCC(=O)OC(COC(=O)CCCCCCCCCCCCCCC)COP(=O)(O)O (configuration not stated) [PA(34:1)]

collision cross section (N2) ([2]; [M+Na]+): 268.07 Å²
SMILES: CCCCCC/C=C\CCCCCCCC(=O)OCC(COP(=O)(O)OCC(O)CO)OC(=O)CCCCCCCCCCCCC (configuration not stated) [PG(30:1)]

collision cross section (N2) ([1]; [M+H]+): 232.4 Å²
SMILES: CC/C=C\C/C=C\C/C=C\C/C=C\CCCCCCC(=O)OC[C@@H](O)COP(=O)([O-])OCC[N+](C)(C)C [LPC(20:4)]

collision cross section (N2) ([2]; [M+Na]+): 330.1 Å²
collision cross section (N2) ([2]; [M-H]-): 323.73 Å²
SMILES: CCCCCC/C=C\CCCCCCCC(=O)OC[C@H](COP(=O)(O)OCCNC(=O)CCCCCCCCCCCCCCC)OC(=O)CCCCCCCCCCCCCCCCC [AcylPE(50:1)]

collision cross section (N2) ([1]; [M+H]+): 281.1 Å²
SMILES: CCCCCCCCCCCCC=CC[C@@H](O)[C@H](COP(=O)([O-])OCC[N+](C)(C)C)NC(=O)CCCCCCCCCCCCCCC [SM(d18:1/16:0)]

collision cross section (N2) ([1]; [M+H]+): 295 Å²
SMILES: CCCCCCCCCCCCC=CC[C@@H](O)[C@H](COP(=O)([O-])OCC[N+](C)(C)C)NC(=O)CC=CCCCCCCCCCCCCCCCCCC [SM(d18:1/22:1)]

collision cross section (N2) ([2]; [M+2K]2+): 424.2 Å²
collision cross section (N2) ([2]; [M-2H]2-): 400.07 Å²
SMILES: CCCCCC/C=C\CCCCCCCC(=O)OCC(COP(=O)(O)OCC(O)COP(=O)(O)OCC(COC(=O)CCCCCCCCCCCCCCC)OC(=O)CCCCCCCC1CC1CCCCCC)OC(=O)CCCCCCC/C=C\CCCCCC (configuration not stated) [CL(65:3)]

collision cross section (N2) ([2]; [M+Na]+): 280.56 Å²
collision cross section (N2) ([2]; [M-H]-): 266.36 Å²
SMILES: CCCCCCCCCCCCCCCC(=O)OCC(COP(=O)(O)OCC(O)CO)OC(=O)CCCCCCCC1CC1CCCCCC (configuration not stated) [PG(33:1)]

collision cross section (N2) ([2]; [M+Na]+): 272.38 Å²
collision cross section (N2) ([2]; [M-H]-): 261.31 Å²
SMILES: CCCCCC/C=C\CCCCCCCC(=O)OCC(COP(=O)(O)OCC(O)CO)OC(=O)CCCCCCC/C=C\CCCCCC (configuration not stated) [PG(32:2)]

collision cross section (N2) ([2]; [M-2H]2-): 407.14 Å²
SMILES: CCCCCC/C=C\CCCCCCCC(=O)OC(COC(=O)CCCCCCC/C=C\CCCCCCCC)COP(=O)(O)OCC(O)COP(=O)(O)OCC(COC(=O)CCCCCCCCCCCCCCC)OC(=O)CCCCCCC/C=C\CCCCCCCC (configuration not stated) [CL(68:3)]

collision cross section (N2) ([1]; [M+H]+): 269.1 Å²
SMILES: CCCCCCCCCCCCCCCCCCCC(=O)N[C@@H](CO)[C@H](O)CCCCCCCCCCCCCCC [Cer(d18:0/20:0)]

collision cross section (N2) ([1]; [M+H-H2O]+): 299.7 Å²
SMILES: CCCCC/C=C\C/C=C\C/C=C\C/C=C\CCCC(=O)O[C@H](COC(=O)CCCCCCC/C=C\CCCCCCCC)COP(=O)(O)O[C@H]1C(O)C(O)C(O)[C@@H](OP(=O)(O)O)C1O (some centres not stated) [PIP(38:5)]

collision cross section (N2) ([2]; [M-2H]2-): 401.68 Å²
SMILES: CCCCCC/C=C\CCCCCCCC(=O)OCC(COP(=O)(O)OCC(O)COP(=O)(O)OCC(COC(=O)CCCCCCC/C=C\CCCCCC)OC(=O)CCCCCCC/C=C\CCCCCCCC)OC(=O)CCCCCCC/C=C\CCCCCC (configuration not stated) [CL(66:4)]

collision cross section (N2) ([1]; [M+H]+): 282.4 Å²
SMILES: CCCCCCCCCCCCC=CC[C@@H](O)[C@H](CO)NC(=O)CC=CCCCCCCCCCCCCCCCCCCCCCC [Cer(d18:1/26:1)]

collision cross section (N2) ([2]; [M-H]-): 249.02 Å²
SMILES: CCCCCC/C=C\CCCCCCCC(=O)OCC(COP(=O)(O)O)OC(=O)CCCCCCCCCCCCCCC (configuration not stated) [PA(32:1)]

collision cross section (N2) ([2]; [M-H]-): 220.89 Å²
SMILES: CCCCCCCCC1CC1CCCCCCCC(=O)O[C@H](CO)COP(=O)(O)OCC(O)CO (some centres not stated) [LPG(19:1)]

collision cross section (N2) ([2]; [M-H]-): 199.81 Å²
SMILES: CCCCC1CC1CCCCCCCC(=O)O[C@H](CO)COP(=O)([O-])OCC[NH3+] (some centres not stated) [LPE(0:0/15:1)]

collision cross section (N2) ([2]; [M-H]-): 328.87 Å²
SMILES: CCCCCC/C=C\CCCCCCCC(=O)OC[C@H](O)COP(=O)(O)OC[C@@H](COC(=O)CCCCCCC/C=C\CCCCCC)OC(=O)CCCCCCC/C=C/CCCCCCCCCC [AcylPG(52:3)]

collision cross section (N2) ([2]; [M+H]+): 275.82 Å²
collision cross section (N2) ([2]; [M-H]-): 265.69 Å²
SMILES: CCCCCC/C=C\CCCCCCCC(=O)OCC(COP(=O)(O)OCCN)OC(=O)CCCCCCCC1CC1CCCCCCCC (configuration not stated) [PE(35:2)]

collision cross section (N2) ([1]; [M+H]+): 270.2 Å²
collision cross section (N2) ([1]; [M-H]-): 260.2 Å²
SMILES: CCCCCCCCCCCCC=CC[C@@H](O)[C@H](CO)NC(=O)CC=CCCCCCCCCCCCCCCCCCC [Cer(d18:1/22:1)]

collision cross section (N2) ([1]; [M+H]+): 281.8 Å²
SMILES: CCCCCCCCCCCCC=CC[C@@H](O)[C@H](CO[C@@H]1O[C@H](CO)[C@@H](O)C(O)C1O)NC(=O)CC=CCCCCCCCCCCCCCC (some centres not stated) [GlcCer(d18:1/18:1)]

collision cross section (N2) ([2]; [M+H]+): 209.91 Å²
collision cross section (N2) ([2]; [M+Na]+): 216.13 Å²
collision cross section (N2) ([2]; [M-H]-): 202.83 Å²
SMILES: CCCCCCCCCCCCCCC(=O)OC[C@@H](O)COP(=O)([O-])OCC[NH3+] [LPE(15:0/0:0)]

collision cross section (N2) ([2]; [M+H]+): 216.39 Å²
collision cross section (N2) ([2]; [M+Na]+): 220.61 Å²
collision cross section (N2) ([2]; [M-H]-): 206.05 Å²
SMILES: CCCCCCCCCCCCCCCC(=O)O[C@H](CO)COP(=O)([O-])OCC[NH3+] [LPE(0:0/16:0)]

collision cross section (N2) ([2]; [M+2K]2+): 421 Å²
collision cross section (N2) ([2]; [M-2H]2-): 394.34 Å²
SMILES: CCCCCC/C=C\CCCCCCCC(=O)OC(COC(=O)CCCCCCCCCCCCCC)COP(=O)(O)OCC(O)COP(=O)(O)OCC(COC(=O)CCCCCCCCCCCCCCC)OC(=O)CCCCCCC/C=C\CCCCCC (configuration not stated) [CL(63:2)]

collision cross section (N2) ([2]; [M+H]+): 265.08 Å²
collision cross section (N2) ([2]; [M-H]-): 252.34 Å²
SMILES: CCCCCCCCCCCCCCCC(=O)OCC(COP(=O)(O)OCCN)OC(=O)CCCCCCCC1CC1CCCC (configuration not stated) [PE(31:1)]

collision cross section (N2) ([2]; [M-H]-): 259.86 Å²
SMILES: CCCCCCCC/C=C\CCCCCCCC(=O)OCC(COP(=O)(O)O)OC(=O)CCCCCCC/C=C\CCCCCCCC (configuration not stated) [PA(36:2)]

collision cross section (N2) ([2]; [M-H]-): 330.34 Å²
SMILES: CCCCCC/C=C\CCCCCCCC(=O)OC[C@H](COP(=O)(O)OC[C@@H](O)COC(=O)CCCCCCCCCCCCCCC)OC(=O)CCCCCCC/C=C\CCCCCCCCCC [AcylPG(52:2)]

collision cross section (N2) ([2]; [M+H]+): 213.91 Å²
collision cross section (N2) ([2]; [M+Na]+): 220.01 Å²
collision cross section (N2) ([2]; [M-H]-): 206.89 Å²
SMILES: CCCCCCCCCCCCCCCC(=O)OC[C@@H](O)COP(=O)([O-])OCC[NH3+] [LPE(16:0/0:0)]

collision cross section (N2) ([2]; [M+Na]+): 326 Å²
collision cross section (N2) ([2]; [M-H]-): 313.72 Å²
SMILES: CCCCCC/C=C\CCCCCCCC(=O)OC[C@H](COP(=O)(O)OC[C@@H](O)COC(=O)CCCCCCCCCCCCCCC)OC(=O)CCCCCCCCCCCCCC [AcylPG(47:1)]

collision cross section (N2) ([2]; [M+2K]2+): 426.8 Å²
collision cross section (N2) ([2]; [M-2H]2-): 402.26 Å²
SMILES: CCCCCC/C=C\CCCCCCCC(=O)OC(COC(=O)CCCCCCCCCCCCCCC)COP(=O)(O)OCC(O)COP(=O)(O)OCC(COC(=O)CCCCCCCCCCCCCCC)OC(=O)CCCCCCC/C=C\CCCCCCCC (configuration not stated) [CL(66:2)]

collision cross section (N2) ([2]; [M-2H]2-): 397.47 Å²
SMILES: CCCCCC/C=C\CCCCCCCC(=O)OCC(COP(=O)(O)OCC(O)COP(=O)(O)OCC(COC(=O)CCCCCCCCCCCCCCC)OC(=O)CCCCCCC/C=C\CCCCCC)OC(=O)CCCCCCC/C=C\CCCCCC (configuration not stated) [CL(64:3)]

collision cross section (N2) ([2]; [M-H]-): 253.68 Å²
SMILES: CCCCCC/C=C\CCCCCCCC(=O)OCC(COP(=O)(O)O)OC(=O)CCCCCCC/C=C\CCCCCCCC (configuration not stated) [PA(34:2)]

collision cross section (N2) ([2]; [M+H]+): 280.06 Å²
collision cross section (N2) ([2]; [M-H]-): 270.25 Å²
SMILES: CCCCCCCC/C=C\CCCCCCCC(=O)OC(COC(=O)CCCCCCCCCCCCCCCCC)COP(=O)(O)OCCN (configuration not stated) [PE(36:1)]

collision cross section (N2) ([2]; [M+2K]2+): 419.8 Å²
SMILES: CCCCCC/C=C\CCCCCCCC(=O)OC(COC(=O)CCCCCCCCCCCCCCC)COP(=O)(O)OCC(O)COP(=O)(O)OCC(COC(=O)CCCCCCCCCCCCC)OC(=O)CCCCCCCCCCCCCCC (configuration not stated) [CL(62:1)]

collision cross section (N2) ([2]; [M-H]-): 210.68 Å²
SMILES: CCCCCC/C=C/CCCCCCCC(=O)OC[C@@H](O)COP(=O)(O)OCC(O)CO (some centres not stated) [LPG(16:1)]

collision cross section (N2) ([2]; [M-2H]2-): 407.34 Å²
SMILES: CCCCCCCC/C=C\CCCCCCCC(=O)OCC(COP(=O)(O)OCC(O)COP(=O)(O)OCC(COC(=O)CCCCCCCCCCCCCCC)OC(=O)CCCCCCC/C=C\CCCCCCCC)OC(=O)CCCCCCCCCCCCCCC (configuration not stated) [CL(68:2)]

collision cross section (N2) ([2]; [M+2K]2+): 421.5 Å²
collision cross section (N2) ([2]; [M-2H]2-): 394.72 Å²
SMILES: CCCCCC/C=C\CCCCCCCC(=O)OC(COC(=O)CCCCCCCCCCCCCCC)COP(=O)(O)OCC(O)COP(=O)(O)OCC(COC(=O)CCCCCCCCCCCCCC)OC(=O)CCCCCCCCCCCCCCC (configuration not stated) [CL(63:1)]

From the C3SDB collision cross section collection
